The record followed here is patent US20250115598A1 (Anaxis Pharma Pty Ltd, priority 2021, published 2025).

SMILES strings stand for the structures.

For one experiment, the target named is endogenous MLKL in U937 (Homo sapiens (Human), UniProt Q8NB16). Put plainly: Degradation assay: endogenous MLKL in U937 (western blot). The conditions noted are these: U937, 24 h incubation, read-out: Degradation of endogenous MLKL in U937 (DC50 cell-based assay). The essentials: (§1)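 Western blot band intensity of MLKL, adjusted to GAPDH loading and normalized to DMSO-only wells, gave percent degradation. Compound exposure lasted 24 h at final concentrations of 10–0.016 μM in 1:5 steps, in mouse dermal fibroblasts or human U937 cells.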
Chain of endogenous MLKL in U937 (Q8NB16 whole entry): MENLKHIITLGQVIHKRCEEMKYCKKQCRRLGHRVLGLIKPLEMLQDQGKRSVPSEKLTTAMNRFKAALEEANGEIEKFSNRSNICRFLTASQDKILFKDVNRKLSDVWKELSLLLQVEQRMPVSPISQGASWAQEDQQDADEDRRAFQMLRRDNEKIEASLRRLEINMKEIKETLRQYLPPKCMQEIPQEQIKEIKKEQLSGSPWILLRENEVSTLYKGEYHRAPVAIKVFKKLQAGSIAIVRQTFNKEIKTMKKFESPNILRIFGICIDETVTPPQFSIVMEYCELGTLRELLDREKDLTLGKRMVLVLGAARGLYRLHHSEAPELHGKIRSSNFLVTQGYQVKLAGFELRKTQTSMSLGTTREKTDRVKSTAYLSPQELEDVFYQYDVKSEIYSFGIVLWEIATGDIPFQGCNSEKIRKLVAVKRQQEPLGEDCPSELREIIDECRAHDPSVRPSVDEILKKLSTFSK

In a further experiment the target is endogenous MLKL in MDF (Mus musculus (Mouse), UniProt Q9D2Y4). Put plainly: Degradation assay: endogenous MLKL in MDF (western blot). The conditions noted are these: MDF cells, 24 h incubation with compound, MLKL adjusted for loading with GAPDH, normalized to DMSO only control, read-out: Degradation of endogenous MLKL in MDF (DC50 cell-based assay). The gist of the method:
as §1

The target in the next experiment is human MLKL (full length) (Homo sapiens (Human), UniProt Q8NB16). The experiment in a line: KINOMEscan binding assay, human MLKL (full length). Conditions: hMLKL, Table 25; read-out: MLKL (KD). The essentials: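 Binding constants were derived by fitting qPCR-quantified bead-retained kinase against compound concentration to the Hill equation, slope set at −1. Compound series were 3-fold over 11 points with 1% DMSO; most top concentrations were 30,000 nM. Kinases were T7-phage-tagged or HEK-293-produced with DNA tags.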
Chain of human MLKL (full length) (Q8NB16 whole entry): as above

The subject of experiment [1] is Immortalised Mouse Dermal Fibroblasts (MDFs). Put plainly: Cellular assay: inhibition of TSI induced necroptosis, CellTitre-Glo viability. Conditions: Mus musculus, Fibroblast; MDF, 3 hours TSI cocktail, Table 27; read-out: Inhibition of TSI-induced necroptosis (IC50 cell-based assay) in MDF. The essentials:
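Necroptosis induced for 3 h with TSI: rhTNF 100 ng/ml, Smac mimetic 500 nM, caspase inhibitor IDN-6556 10 μM. Mouse dermal fibroblasts had received compound (36 μM top, ten three-fold steps) 30 min beforehand. ATP-based viability scaled between untreated and TSI-only wells; IC50 taken as 4-parameter curve inflection.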

Chain of endogenous MLKL in MDF (Q9D2Y4 whole entry): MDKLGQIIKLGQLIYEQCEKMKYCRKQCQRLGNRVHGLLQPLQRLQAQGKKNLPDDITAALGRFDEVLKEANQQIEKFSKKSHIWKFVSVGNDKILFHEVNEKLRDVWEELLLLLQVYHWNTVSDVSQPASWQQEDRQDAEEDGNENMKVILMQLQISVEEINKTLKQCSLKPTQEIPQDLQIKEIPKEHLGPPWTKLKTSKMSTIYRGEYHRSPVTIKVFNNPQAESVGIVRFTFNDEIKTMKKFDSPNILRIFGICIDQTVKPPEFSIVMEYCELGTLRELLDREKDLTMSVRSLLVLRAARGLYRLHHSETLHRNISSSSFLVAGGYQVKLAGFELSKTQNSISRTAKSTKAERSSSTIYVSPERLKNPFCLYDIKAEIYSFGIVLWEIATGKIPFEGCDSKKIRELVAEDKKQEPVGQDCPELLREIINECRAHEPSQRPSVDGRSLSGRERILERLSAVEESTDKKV

Take `C[C@H](Oc1cc(-c2nn(C)c3c(-c4cnn(C5CCN(CCCN6CCN(C(=O)COc7ccc8c(c7)C(=O)N(C7CCC(=O)NC7=O)C8=O)CC6)CC5)c4)cnc(N)c23)ccc1NS(=O)(=O)C(F)F)c1ccc(F)cc1` (stereo partly drawn) [Compound 1091, N-(4-{4-amino-7-[1-(1-{3-[4-(2-{[2-(2,6-dioxopiperidin-3-yl)-1,3-dioxo-2,3-dihydro-1H-isoindol-5-yl]oxy}acetyl)piperazin-1-yl]propyl}piperidin-4-yl)-1H-pyrazol-4-yl]-1-methyl-1H-pyrazolo[4,3-c]pyridin-3-yl}-2-[(1S)-1-(4-fluorophenyl)ethoxy]phenyl)-1,1-difluoromethanesulfonamide]: the DC50 on endogenous MLKL in U937 and at endogenous MLKL in MDF was < 1000 nM throughout. Moreover, on human MLKL (full length), the Kd was < 10 nM. The IC50 in experiment [1] is < 1000 nM.

In the case of `C[C@H](Oc1cc(-c2nn(C)c3c(-c4cnn(C5CCN(C(=O)c6ccc(CNc7cccc8c7C(=O)N(C7CCC(=O)NC7=O)C8=O)cc6)CC5)c4)cnc(N)c23)ccc1NS(=O)(=O)C(F)F)c1ccc(F)cc1` (stereo partly drawn) [Compound 1093, N-{4-[4-amino-7-(1-{1-[4-({[2-(2,6-dioxopiperidin-3-yl)-1,3-dioxo-2,3-dihydro-1H-isoindol-4-yl]amino}methyl)benzoyl]piperidin-4-yl}-1H-pyrazol-4-yl)-1-methyl-1H-pyrazolo[4,3-c]pyridin-3-yl]-2-[(1S)-1-(4-fluorophenyl)ethoxy]phenyl}-1,1-difluoromethanesulfonamide], the 50% degradation concentration (DC50) on endogenous MLKL in U937 and at endogenous MLKL in MDF was < 1000 nM in each case. Further, at human MLKL (full length), the Kd was 10 to 1000 nM. Further, the 50% inhibitory concentration (IC50) in experiment [1] is < 1000 nM.

`C[C@H](Oc1cc(-c2nn(C)c3c(-c4cnn(C5CCN(Cc6cccc(CNc7cccc8c7C(=O)N(C7CCC(=O)NC7=O)C8=O)c6)CC5)c4)cnc(N)c23)ccc1NS(=O)(=O)C(F)F)c1ccc(F)cc1` (stereo partly drawn) [Compound 1095, N-(4-{4-amino-7-[1-(1-{[3-{{[2-(2,6-dioxopiperidin-3-yl)-1,3-dioxo-2,3-dihydro-1H-isoindol-4-yl]amino}methyl)phenyl]methyl}piperidin-4-yl)-1H-pyrazol-4-yl]-1-methyl-1H-pyrazolo[4,3-c]pyridin-3-yl}-2-[(1S)-1-(4-fluorophenyl)ethoxy]phenyl)-1,1-difluoromethane-sulfonamide]: the DC50 at endogenous MLKL in U937 and on endogenous MLKL in MDF was < 1000 nM each time. In addition, the Kd at human MLKL (full length) was in the range of 10 to 1000 nM. Besides, the 50% inhibitory concentration (IC50) in experiment [1] was < 1000 nM.

In the case of `C[C@H](Oc1cc(-c2nn(C)c3c(-c4cnn(C5CCN(C(=O)CC(=O)N6CCN(c7cccc8c7C(=O)N(C7CCC(=O)NC7=O)C8=O)CC6)CC5)c4)cnc(N)c23)ccc1NS(=O)(=O)C(F)F)c1ccc(F)cc1` (stereo partly drawn) [Compound 1098, N-[4-(4-amino-7-{1-[1-(3-{4-[2-(2,6-dioxopiperidin-3-yl)-1,3-dioxo-2,3-dihydro-1H-isoindol-4-yl]piperazin-1-yl}-3-oxopropanoyl)piperidin-4-yl]-1H-pyrazol-4-yl}-1-methyl-1H-pyrazolo[4,3-c]pyridin-3-yl)-2-[(1S)-1-(4-fluorophenyl)ethoxy]phenyl]-1,1-difluoromethanesulfonamide], the DC50 on endogenous MLKL in U937 and at endogenous MLKL in MDF was < 1000 nM each time. Also, the Kd on human MLKL (full length) was < 10 nM. The concentration for half-maximal inhibition (IC50) in experiment [1] lay within 1000 to 10000 nM.

In the case of `C[C@H](Oc1cc(-c2nn(C)c3c(-c4cnn(C5CCN(CCCN6CCN(C(=O)COc7cccc8c7C(=O)N(C7CCC(=O)NC7=O)C8=O)CC6)CC5)c4)cnc(N)c23)ccc1NS(=O)(=O)C(F)F)c1ccc(F)cc1` (stereo partly drawn) [Compound 1099, N-(4-{4-amino-7-[1-(1-{3-[4-(2-{[2-(2,6-dioxopiperidin-3-yl)-1,3-dioxo-2,3-dihydro-1H-isoindol-4-yl]oxy}acetyl)piperazin-1-yl]propyl}piperidin-4-yl)-1H-pyrazol-4-yl]-1-methyl-1H-pyrazolo[4,3-c]pyridin-3-yl}-2-[(1S)-1-(4-fluorophenyl)ethoxy]phenyl)-1,1-difluoromethanesulfonamide], the values for the half-maximal degradation concentration (DC50) on endogenous MLKL in U937 and at endogenous MLKL in MDF were < 1000 nM and 1000 to 10000 nM, respectively. For the same compound, at human MLKL (full length), the Kd is < 10 nM. Moreover, in experiment [1], the half-maximal inhibitory concentration (IC50) was 1000 to 10000 nM.

With `C[C@H](Oc1cc(-c2nn(C)c3c(-c4cnn(C5CCN(C[C@H]6C[C@H](Nc7cccc8c7C(=O)N(C7CCC(=O)NC7=O)C8=O)C6)CC5)c4)cnc(N)c23)ccc1NS(=O)(=O)C(F)F)c1ccc(F)cc1` (stereo partly drawn) [Compound 1108, N-(4-{4-amino-1-methyl-7-[1-(1-{[(trans)-3-{[2-(2,6-dioxopiperidin-3-yl)-1,3-dioxo-2,3-dihydro-1H-isoindol-4-yl]amino}cyclobutyl]methyl}piperidin-4-yl)-1H-pyrazol-4-yl]-1H-pyrazolo[4,3-c]pyridin-3-yl}-2-[(1S)-1-(4-fluorophenyl)ethoxy]phenyl)-1,1-difluoromethane-sulfonamide], the DC50 at endogenous MLKL in U937 is 1000 to 10000 nM; on endogenous MLKL in MDF, < 1000 nM. Besides, at human MLKL (full length), the equilibrium dissociation constant (Kd) was < 10 nM. For the same compound, the half-inhibitory concentration (IC50) in experiment [1] was < 1000 nM.

With `C[C@H](Oc1cc(-c2nn(C)c3c(C#CC(=O)N[C@H]4C[C@H](Nc5cccc6c5C(=O)N(C5CCC(=O)NC5=O)C6=O)C4)cnc(N)c23)ccc1NS(=O)(=O)C(F)F)c1ccc(F)cc1` (stereo partly drawn) [Compound 1109, 3-{4-amino-3-[4-(difluoromethanesulfonamido)-3-[(1S)-1-(4-fluorophenyl)ethoxy]phenyl]-1-methyl-1H-pyrazolo[4,3-c]pyridin-7-yl}-N-[(trans)-3-{[2-(2,6-dioxopiperidin-3-yl)-1,3-dioxo-2,3-dihydro-1H-isoindol-4-yl]amino}cyclobutyl]prop-2-ynamide], the 50% degradation concentration (DC50) at endogenous MLKL in U937 and at endogenous MLKL in MDF was < 1000 nM in each case. In addition, the dissociation constant Kd on human MLKL (full length) is < 10 nM. The half-maximal inhibitory concentration (IC50) in experiment [1] lay within 1000 to 10000 nM.

For `Cn1nc(-c2ccc(NS(=O)(=O)C(F)F)c(F)c2)c2c(N)ncc(-c3cnn(C4CCN(C(=O)CCC5CCN(c6cccc7c6C(=O)N(C6CCC(=O)NC6=O)C7=O)CC5)CC4)c3)c21` (centres unmarked) [Compound 1113, N-[4-(4-amino-7-{1-[1-(3-{1-[2-(2,6-dioxopiperidin-3-yl)-1,3-dioxo-2,3-dihydro-1H-isoindol-4-yl]piperidin-4-yl}propanoyl)piperidin-4-yl]-1H-pyrazol-4-yl}-1-methyl-1H-pyrazolo[4,3-c]pyridin-3-yl}-2-fluorophenyl]-1,1-difluoromethanesulfonamide], the DC50 at endogenous MLKL in U937 and on endogenous MLKL in MDF was < 1000 nM in each case. In addition, the Kd on human MLKL (full length) was < 10 nM. The IC50 in experiment [1] was in the range of 1000 to 10000 nM.

`C[C@H](Oc1cc(-c2nn(C)c3c(-c4cnn(C5CCN(Cc6ccc(CNc7cccc8c7C(=O)N(C7CCC(=O)NC7=O)C8=O)cc6)CC5)c4)cnc(N)c23)ccc1NS(=O)(=O)C(F)F)c1ccc(F)cc1` (stereo partly drawn) [Compound 1115, N-(4-{4-amino-7-[1-(1-{[4-({[2-(2,6-dioxopiperidin-3-yl)-1,3-dioxo-2,3-dihydro-1H-isoindol-4-yl]amino}methyl)phenyl]methyl}piperidin-4-yl)-1H-pyrazol-4-yl]-1-methyl-1H-pyrazolo[4,3-c]pyridin-3-yl}-2-[(1S)-1-(4-fluorophenyl)ethoxy]phenyl)-1,1-difluoromethanesulfonamide]: the 50% degradation concentration (DC50) at endogenous MLKL in U937 and on endogenous MLKL in MDF was < 1000 nM each time. Besides, the Kd at human MLKL (full length) lay within 10 to 1000 nM. Further, the IC50 in experiment [1] was < 1000 nM.

On to `C[C@H](Oc1cc(-c2nn(C)c3c(-c4cnn(C5CCC(C(=O)N6CCN(c7cccc8c7C(=O)N(C7CCC(=O)NC7=O)C8=O)CC6)N(C)C5)c4)cnc(N)c23)ccc1NS(=O)(=O)C(F)F)c1ccc(F)cc1` (stereo partly drawn) [Compound 1121, N-(4-{4-amino-7-[1-(6-{4-[2-(2,6-dioxopiperidin-3-yl)-1,3-dioxo-2,3-dihydro-1H-isoindol-4-yl]piperazine-1-carbonyl}-1-methylpiperidin-3-yl)-1H-pyrazol-4-yl]-1-methyl-1H-pyrazolo[4,3-c]pyridin-3-yl}-2-[(1S)-1-(4-fluorophenyl)ethoxy]phenyl)-1,1-difluoromethanesulfonamide], for which the DC50 at endogenous MLKL in U937 and on endogenous MLKL in MDF was < 1000 nM throughout. In addition, the equilibrium dissociation constant (Kd) on human MLKL (full length) was < 10 nM. The IC50 in experiment [1] was < 1000 nM.

In the case of `Cn1nc(-c2ccc(NS(=O)(=O)C(F)F)c(F)c2)c2c(N)ncc(-c3cnn(C4CCN(Cc5cccc(CNc6cccc7c6C(=O)N(C6CCC(=O)NC6=O)C7=O)c5)CC4)c3)c21` (centres unmarked) [Compound 1122, N-(4-{4-amino-7-[1-(1-{[3-({[2-(2,6-dioxopiperidin-3-yl)-1,3-dioxo-2,3-dihydro-1H-isoindol-4-yl]amino}methyl)phenyl]methyl}piperidin-4-yl)-1H-pyrazol-4-yl]-1-methyl-1H-pyrazolo[4,3-c]pyridin-3-yl}-2-fluorophenyl)-1,1-difluoromethanesulfonamide], the values for the 50% degradation concentration (DC50) at endogenous MLKL in U937 and at endogenous MLKL in MDF were < 1000 nM and 1000 to 10000 nM, respectively. Besides, on human MLKL (full length), the Kd was < 10 nM. The IC50 in experiment [1] was in the range of 1000 to 10000 nM.
